Reference: PubChem BioAssay (NCI)
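GI50 marks 50% less growth. The concentration for full growth arrest is given as TGI.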

Assays:
Assay in all cases: NCI anticancer screen, dose series, 384-well format
TK-10 renal = system: TK-10 renal
SF-268 CNS = system: SF-268 CNS
HT29 colon = system: HT29 colon
SF-539 CNS = system: SF-539 CNS
OVCAR-8 ovarian = system: OVCAR-8 ovarian
T-47D breast = system: T-47D breast
RPMI-8226 leukemia = system: RPMI-8226 leukemia
A498 renal = system: A498 renal
HCT-116 colon = system: HCT-116 colon
CCRF-CEM leukemia = system: CCRF-CEM leukemia
PC-3 prostate = system: PC-3 prostate
NCI/ADR-RES ovarian = system: NCI/ADR-RES ovarian
HOP-62 NSCLC = system: HOP-62 NSCLC
A549 NSCLC = system: A549 NSCLC
MOLT-4 leukemia = system: MOLT-4 leukemia
NCI-H322M lung = system: NCI-H322M lung
EKVX NSCLC = system: EKVX NSCLC
UO-31 renal = system: UO-31 renal
OVCAR-3 ovarian = system: OVCAR-3 ovarian
SNB-19 CNS = system: SNB-19 CNS
NCI-H226 lung = system: NCI-H226 lung
U251 glioblastoma = system: U251 glioblastoma
MALME-3M melanoma = system: MALME-3M melanoma
DU-145 prostate = system: DU-145 prostate
CAKI-1 renal = system: CAKI-1 renal
LOX IMVI melanoma = system: LOX IMVI melanoma
HCT-15 colon = system: HCT-15 colon
UACC-257 melanoma = system: UACC-257 melanoma
M14 melanoma = system: M14 melanoma
MDA-MB-468 breast = system: MDA-MB-468 breast
HS 578T breast = system: HS 578T breast
UACC-62 melanoma = system: UACC-62 melanoma
HL-60(TB) leukemia = system: HL-60(TB) leukemia
KM12 colon = system: KM12 colon
RXF 393 renal = system: RXF 393 renal
OVCAR-4 ovarian = system: OVCAR-4 ovarian
MCF7 breast = system: MCF7 breast
NCI-H522 lung = system: NCI-H522 lung
SN12C renal = system: SN12C renal
SNB-75 CNS = system: SNB-75 CNS
SF-295 CNS = system: SF-295 CNS
BT-549 breast = system: BT-549 breast
OVCAR-5 ovarian = system: OVCAR-5 ovarian
K-562 leukemia = system: K-562 leukemia
SW-620 colon = system: SW-620 colon
SK-MEL-28 melanoma = system: SK-MEL-28 melanoma
MDA-MB-435 melanoma = system: MDA-MB-435 melanoma
HOP-92 NSCLC = system: HOP-92 NSCLC
IGROV1 ovarian = system: IGROV1 ovarian
NCI-H23 lung = system: NCI-H23 lung
ACHN renal = system: ACHN renal
SK-MEL-2 melanoma = system: SK-MEL-2 melanoma
SK-OV-3 ovarian = system: SK-OV-3 ovarian
786-0 renal = system: 786-0 renal
MDA-MB-231 breast = system: MDA-MB-231 breast

CN(N=O)C(=O)N[C@@H](C=O)[C@@H](O)[C@H](O)[C@H](O)CO
GI50 (TK-10 renal): > 100 µM
TGI (TK-10 renal): > 100 µM
GI50 (SF-268 CNS): > 100 µM
TGI (SF-268 CNS): > 100 µM
GI50 (HT29 colon): > 100 µM
TGI (HT29 colon): > 100 µM
GI50 (SF-539 CNS): > 100 µM
TGI (SF-539 CNS): > 100 µM
GI50 (OVCAR-8 ovarian): > 100 µM
TGI (OVCAR-8 ovarian): > 100 µM
GI50 (T-47D breast): > 100 µM
TGI (T-47D breast): > 100 µM
GI50 (RPMI-8226 leukemia): > 100 µM
TGI (RPMI-8226 leukemia): > 100 µM
GI50 (A498 renal): > 100 µM
TGI (A498 renal): > 100 µM
GI50 (HCT-116 colon): > 100 µM
TGI (HCT-116 colon): > 100 µM
GI50 (CCRF-CEM leukemia): > 100 µM
TGI (CCRF-CEM leukemia): > 100 µM
GI50 (PC-3 prostate): > 100 µM
TGI (PC-3 prostate): > 100 µM
GI50 (NCI/ADR-RES ovarian): > 100 µM
TGI (NCI/ADR-RES ovarian): > 100 µM
GI50 (HOP-62 NSCLC): > 100 µM
TGI (HOP-62 NSCLC): > 100 µM
GI50 (A549 NSCLC): > 100 µM
TGI (A549 NSCLC): > 100 µM
GI50 (MOLT-4 leukemia): > 100 µM
TGI (MOLT-4 leukemia): > 100 µM
GI50 (NCI-H322M lung): > 100 µM
TGI (NCI-H322M lung): > 100 µM
GI50 (EKVX NSCLC): > 100 µM
TGI (EKVX NSCLC): > 100 µM
GI50 (UO-31 renal): > 100 µM
TGI (UO-31 renal): > 100 µM
GI50 (OVCAR-3 ovarian): > 100 µM
TGI (OVCAR-3 ovarian): > 100 µM
GI50 (SNB-19 CNS): > 100 µM
TGI (SNB-19 CNS): > 100 µM
GI50 (NCI-H226 lung): > 100 µM
TGI (NCI-H226 lung): > 100 µM
GI50 (U251 glioblastoma): > 100 µM
TGI (U251 glioblastoma): > 100 µM
GI50 (MALME-3M melanoma): > 100 µM
TGI (MALME-3M melanoma): > 100 µM
GI50 (DU-145 prostate): > 100 µM
TGI (DU-145 prostate): > 100 µM
GI50 (CAKI-1 renal): > 100 µM
TGI (CAKI-1 renal): > 100 µM
GI50 (LOX IMVI melanoma): > 100 µM
TGI (LOX IMVI melanoma): > 100 µM
GI50 (HCT-15 colon): > 100 µM
TGI (HCT-15 colon): > 100 µM
GI50 (UACC-257 melanoma): > 100 µM
TGI (UACC-257 melanoma): > 100 µM
GI50 (M14 melanoma): > 100 µM
TGI (M14 melanoma): > 100 µM
GI50 (MDA-MB-468 breast): > 100 µM
TGI (MDA-MB-468 breast): > 100 µM
GI50 (HS 578T breast): > 100 µM
TGI (HS 578T breast): > 100 µM
GI50 (UACC-62 melanoma): > 100 µM
TGI (UACC-62 melanoma): > 100 µM
GI50 (HL-60(TB) leukemia): > 100 µM
TGI (HL-60(TB) leukemia): > 100 µM
GI50 (KM12 colon): > 100 µM
TGI (KM12 colon): > 100 µM
GI50 (RXF 393 renal): > 100 µM
TGI (RXF 393 renal): > 100 µM
GI50 (OVCAR-4 ovarian): > 100 µM
TGI (OVCAR-4 ovarian): > 100 µM
GI50 (MCF7 breast): > 100 µM
TGI (MCF7 breast): > 100 µM
GI50 (NCI-H522 lung): > 100 µM
TGI (NCI-H522 lung): > 100 µM
GI50 (SN12C renal): > 100 µM
TGI (SN12C renal): > 100 µM
GI50 (SNB-75 CNS): > 100 µM
TGI (SNB-75 CNS): > 100 µM
GI50 (SF-295 CNS): > 100 µM
TGI (SF-295 CNS): > 100 µM
GI50 (BT-549 breast): > 100 µM
TGI (BT-549 breast): > 100 µM
GI50 (OVCAR-5 ovarian): > 100 µM
TGI (OVCAR-5 ovarian): > 100 µM
GI50 (K-562 leukemia): > 100 µM
TGI (K-562 leukemia): > 100 µM
GI50 (SW-620 colon): > 100 µM
TGI (SW-620 colon): > 100 µM
GI50 (SK-MEL-28 melanoma): > 100 µM
TGI (SK-MEL-28 melanoma): > 100 µM
GI50 (MDA-MB-435 melanoma): > 100 µM
TGI (MDA-MB-435 melanoma): > 100 µM
GI50 (HOP-92 NSCLC): > 100 µM
TGI (HOP-92 NSCLC): > 100 µM
GI50 (IGROV1 ovarian): > 100 µM
TGI (IGROV1 ovarian): > 100 µM
GI50 (NCI-H23 lung): > 100 µM
TGI (NCI-H23 lung): > 100 µM
GI50 (ACHN renal): > 100 µM
TGI (ACHN renal): > 100 µM
GI50 (SK-MEL-2 melanoma): > 100 µM
TGI (SK-MEL-2 melanoma): > 100 µM
GI50 (SK-OV-3 ovarian): > 100 µM
TGI (SK-OV-3 ovarian): > 100 µM
GI50 ([…]-0 renal): > 100 µM
TGI (786-0 renal): > 100 µM
GI50 (MDA-MB-231 breast): > 100 µM
TGI (MDA-MB-231 breast): > 100 µM
